From a melting point compilation (Tetko et al.; mined from patent text by program, amines drawn as free bases though some values may be those of a salt)

| melting point | Structure (SMILES) |
| --- | --- |
| 207 °C | COc1ccc(C=C(C=O)C(C=O)=Cc2ccc(OC)cc2)cc1 |
| 226 °C | O=C(O)C1Oc2ccc(Cl)cc2C(c2ccccc2)(c2ccccc2)O1 (configuration not stated) |
| 91 to 92 °C | Clc1ccccc1-c1noc(-c2ccccc2Cl)n1 |
| 126 to 127 °C | ClCc1cc(OCc2ccc3ccccc3n2)no1 |
| 174 to 175 °C | COc1cc2cc(C(=O)N3CC(CCl)c4c3cc(N(C)C)c3ccccc43)[nH]c2c(OC)c1OC (configuration not stated) |
| 140 °C | CS(=O)c1cccc(NC(=O)NCC(=O)N(CC(=O)N2CCCc3ccccc32)c2ccccc2)c1 (racemic) |
| 108 to 110 °C | CCCCCCCCCCCCCCCc1cc2cc(C(=O)O)ccc2[nH]1 |
| 86 to 87 °C | CCCCCCCCCCCC(=O)c1ccc2c(Cl)cccc2c1O |
| 242 °C | CC(=O)Nc1nc2c(NC(=O)c3ccc4cc(Br)ccc4c3)cccc2s1 |
| 137 to 139 °C | c1ccc2c(NC3CCCCC3)nnc(Cc3ccncc3)c2c1 |
| 130 to 131 °C | COc1cc(OC)nc(N2CCN(Cc3ccc(CNC(C)=O)cc3)CC2)n1 |
| 234 to 236 °C | CC(=O)Nc1c(C(=O)c2cccc(C)n2)[nH]c2cc(Cl)c(Br)cc12 |
| 190 to 195 °C | CCCCOC(=O)c1cc2c3ccccc3[nH]c(=O)n2n1 |
| 138 to 140 °C | CCC(C)(CC)c1nnc(N)s1 |
| 60 to 64 °C | CC(=O)OCc1nc(C(CN(C(C)=O)C(C)(C)C)OC(C)=O)ccc1OC(C)=O (configuration not stated) |
| 115 to 116 °C | O=C(Cc1ccccc1)Nc1ccccc1 |
| 110 to 114 °C | CCOC(=O)c1ccc(NCc2ccccc2)nc1C(=O)OCC |
| 89.5 to 90 °C | COC(=O)c1ccc(-c2cccc(OC)c2)nc1 |
| 107 °C | COc1ccc(N2CCN(N)CC2)cc1 |
| 157 to 158 °C | O=C(O)c1cnn(-c2ccc(C(F)(F)F)cc2)c1C(F)(F)F |
| 227 to 228 °C | Cn1c(COc2ccc(CC3SC(=O)NC3=O)cc2)nc2ccc(Oc3ccc(NC(=O)C4CCCC4)cc3)cc21 (configuration not stated) |
| > 250 °C | Nc1nc2ccccc2c2c1nc1n2CCCN1 |
| 82 °C | O=C(NN1CCCCCC1)C(CS)Cc1ccccc1 (configuration not stated) |
| 105 °C | CS(=O)(=O)NCC(=O)N[C@@H]1CN2C(=O)N(c3cc(Cl)nc(Cl)c3)C(=O)[C@@]2(Cc2ccc(OC(F)(F)F)cc2)C1 |

| melting point | Structure (SMILES) |
| --- | --- |
| 76 to 78 °C | Clc1ccc(CC2(c3cccnc3)OCCO2)c(Cl)c1 |
| 158 °C | Clc1ccc(-c2n[nH]cc2Cl)cc1 |
| 89 to 90 °C | CN(C(=O)Nc1nc(OCC(F)(F)F)cc(OCC(F)(F)F)c1F)c1ccc(Br)cc1 |
| 196 to 197 °C | O=C(O)Cc1cncc(Cc2nc3c(F)c(F)cc(F)c3s2)c1 |
| 76 to 78 °C | COc1ccc(C(CCC(=O)c2ccccc2)C(=O)c2ccc(OCc3ccccc3)cc2)cc1 (configuration not stated) |
| 271 to 273 °C | O=C(O)c1cn(-c2ccncc2F)c2cc(F)c(F)cc2c1=O |
| 90 to 93 °C | CC(C)OC(=NC(=O)c1ccc(F)cc1)N1Cc2ccccc2-c2ccccc2C1 |
| 60 to 62 °C | C=CCON(CCCCCCCCCCCCCCCCCC)CCCCCCCCCCCCCCCCCC |
| 194 to 195 °C | COCc1cc(NCc2ccccc2C)c2ccccc2n1 |
| 54 to 55 °C | COc1ccc(OCC2NCCS2)cc1 (configuration not stated) |
| 267 to 270 °C | CC(=O)c1cc(C#N)c(=O)n(C=CN(C)C)c1 |
| 115 to 116 °C | OCc1cn(-c2ccc(OC(F)(F)F)c(Cl)c2)cn1 |
| 117 °C | COC(=O)c1ccc2ccc3ccccc3c2c1C(=O)OC |
| 92 to 93 °C | COc1cc(Nc2nccc(-c3ccc(N4CCN(C)[C@@H](C)C4)nc3)n2)cc(OC)c1OC |
| 107 to 113 °C | CCC(NC(=NC#N)Nc1ccc(N(C)C)nc1)c1ccccc1 (configuration not stated) |
| 210 to 214 °C | CN(C)C(=O)C(O)C1c2ccccc2CCc2ccccc21 (configuration not stated) |
| > 250 °C | O=c1[nH]c2c([nH]c1=O)C1=C(CCC(n3cccc3)=C1)CC2 |
| 212 to 213 °C | O=C(Nc1cccc(S(=O)(=O)C(F)(F)F)c1)c1cc2ccccc2cc1O |
| 82 to 85 °C | CC(C)C(NC(=O)OC(C)(C)C)C(=O)OCN1C(=O)CCC(N2C(=O)c3ccccc3C2=O)C1=O (configuration not stated) |
| 154 to 156 °C | O=C(N[C@@H]1CN(C2CCCCC2)C[C@H]1O)c1ccccc1 (relative stereo) |
| 196 to 197 °C | CC(C)c1cccc(C(C)C)c1NC(=O)NCC1(c2ccc(C(F)(F)F)cc2)CCCC1 |
| 120 to 130 °C | CN1CCC(C2(O)c3ccccc3Sc3cc(F)ccc32)CC1 (configuration not stated) |
| 149 to 151 °C | O=C(O)Cc1cc(O)c2c(c1)CCc1ccccc1C2=O |
| 69 to 72 °C | O=C(CSc1cccs1)C12CC3CC(CC(C3)C1)C2 |

| melting point | Structure (SMILES) |
| --- | --- |
| 188 °C | CCOc1ccc(-c2nnc(C(N)=O)o2)cc1 |
| 175 to 178 °C | CCOC(=O)c1cn2c3c(c(-c4cc(C)nc(C)c4)c(F)c(SCc4ccccc4)c3c1=O)OC[C@@H]2C |
| 251 to 253 °C | O=C1c2ccc(F)cc2C(=O)c2cc3cc(F)ccc3cc21 |
| 189 to 190 °C | COc1ccc(-c2cc(-c3ccoc3)c(C(=O)NCc3ccc(C(=O)NO)cc3)[nH]2)cc1 |
| 148 to 149 °C | O=C(O)CCCCCCCn1c(Cc2ccccc2)nc(-c2ccccc2)c1-c1ccccc1 |
| 118 to 119 °C | CCC1=C(C)CN(C(=O)NC2COc3cc(OC)ccc3C2)C1=O (configuration not stated) |
| 119 to 122 °C | COc1ccc(F)cc1OCCNCCCc1c[nH]c2ccc(F)cc12 |
| 182 to 184 °C | CC(=O)Nc1ccc(N(c2ccccc2)C2(c3ccc(N(C)C)cc3)OC(=O)c3ccccc32)cc1 (configuration not stated) |
| 168 °C | OC1CN(C(=S)Nc2ccccc2)Cc2sccc21 (configuration not stated) |
| 56 to 57 °C | CSCc1cnc(Cl)nc1 |
| > 340 °C | O=C1c2cccc3cc4c([N+](=O)[O-])cccc4c(c23)C(=O)N1CCNCCCNCCN1C(=O)c2cccc3cc4c([N+](=O)[O-])cccc4c(c23)C1=O |
| > 300 °C | CNc1cc2c(cn1)c(=O)n1nccc1n2C |
| 201 °C | CCC(Cc1c(I)cc(I)c(NC(=O)CN2CCNCCNCCNCC2)c1I)C(=O)O (configuration not stated) |
| 71 to 72 °C | CCCCCCCCCCCOc1cccc(CCCC(N)(CO)CO)c1 |
| 132 °C | CC(=O)Nc1nnc(SCC(O)(Cn2cncn2)c2ccc(Cl)cc2Cl)s1 (configuration not stated) |
| 126 to 128 °C | Nc1nc(N)nc(C2CN(C(c3ccccc3)c3ccccc3)C2)n1 |
| 151 to 152 °C | CCCc1nn(C)c2c(=O)[nH]c(-c3sccc3OCC)nc12 |
| 168 to 170 °C | COC(=O)NC(=O)Nc1ccc(OC)c(OC)c1 |
| 235 to 238 °C | CCOC(=O)C1=CC(=O)N=N1 |
| 156 °C | O=C1NC2(CCC(F)(F)CC2)C(O)=C1c1cc(-c2ccc(Cl)cc2)ccc1Cl |
| 80 to 81 °C | CC(C)n1nc(-c2cccc(Cl)c2)c2ncccc2c1=O |
| 103 to 122 °C | CC(C)c1cccc(OCc2cc(Br)ccc2C(=O)O)c1 |
| 135 to 136 °C | CCCc1nc2c(N)nc3cccnc3c2s1 |
| 189 to 190 °C | NC(=NCC(F)(F)F)Nc1ccnc(OCCCCO)n1.[H][H] |

| melting point | Structure (SMILES) |
| --- | --- |
| 150 to 152 °C | C=Cc1cccc2c(Nc3ccc(O)cc3C)c(C(=O)CCC)cnc12 |
| 305 to 308 °C | Cc1nc2[nH]c3ccccc3c2c(N)c1C(N)=O |
| 135 to 138 °C | FC(F)(F)/C(=C(/c1ccccc1)c1ccc(OCCBr)cc1)c1ccccc1 |
| > 300 °C | O=C(O)c1ccc(-c2nnc3n2-c2cccnc2Nc2ccccc2-3)cc1 |
| 106 to 107 °C | CN1CCCN(c2ccc3nc4c(n3n2)CCCC4)CC1 |
| 129 to 130 °C | C=C(C)COc1cc(C)c(NC(=O)CC(C)(C)C)c(C)c1Cc1ccc(C(C)C)cc1 |
| 166 °C | COc1cc2c(cc1OC)CN(CCCc1ccc(NC(=O)c3cccc4c(=O)c5cccc(F)c5[nH]c34)cc1)CC2 |
| 180 to 183 °C | Oc1cccc2cc(-c3ccc(OCCN4CCCC4)cc3)sc12 |
| 152 to 154 °C | CC(Cn1ncnn1)n1nnc2cc3c(=O)n(C4CCC4)nnc3cc2c1=O (configuration not stated) |
| 39 to 41 °C | CCOC(=O)/C=C/c1ccc(OC)c(F)c1 |
| 275 to 276 °C | O=C(O)c1ccc(-c2csc(-c3ccc(C(F)(F)F)cc3)n2)cc1 |
| 180 to 184 °C | CC(C)(C)c1ccc(-c2sc(N)c(C(=O)c3ccc(Cl)cc3)c2CN(C2CCCCC2)C2CCCCC2)cc1 |
| 133 to 134 °C | O=C(O)c1ccc(Oc2nccs2)c(F)c1 |
| 93 to 94 °C | CCCCc1nn(-c2ccc(C(F)(F)F)cn2)cc1CCCO |
| 75 °C | Cc1cc(C)c2c(c1)NC(C)C2 (configuration not stated) |
| 107 to 109 °C | C=CC[C@H]1CCC[C@H](N2C(=O)c3ccccc3C2=O)C(=O)N1CC(=O)OC |
| 170 to 171 °C | CCCc1nc2c(N)nc3cc(OCc4ccoc4)ccc3c2s1 |
| 345 to 349 °C | O=c1[nH][nH]c(=O)c2nc3ccccc3cc12 |
| 155 °C | COc1ccc(-c2cncc(OC3SCC(OC(C)=O)C(OC(C)=O)C3OC(C)=O)c2)cc1Cl (configuration not stated) |
| 213 to 215 °C | CN(C)S(=O)(=O)Nc1ccc(C(=O)Nc2ccccc2)cc1 |
| 103 to 104 °C | CCOC(=O)COc1cc2c(c(Cl)c1Cl)C(=O)C(CC#C[Si](C)(C)C)(c1ccc(Cl)cc1)C2 (configuration not stated) |
| 211 to 212 °C | CCS(=O)(=O)NCCCCn1c(C)nc2c(N)nc3ccccc3c21 |

| Structure (SMILES) | melting point |
| --- | --- |
| Cc1sc2c(c1C)C(c1ccc(Cl)cc1)=NC(CC(=O)N1CCCCC1)c1nnc(C)n1-2 (configuration not stated) | 260 to 262 °C |
| N=C(Nc1ccc(CCN)cc1)c1cccs1 | 134 to 137 °C |
| CN1CC=C(c2c[nH]c3c(Cl)c(Cl)ccc23)CC1 | 246 to 249 °C |
| CCCCCCCCSC(=O)n1cc2cc(C)c(NC(=O)c3cc(OC)nn3-c3ncccc3Cl)c(C(=O)NC(C)C)c2n1 | 98 to 102 °C |
| O=C1Nc2cccc(-c3cccc(NC(=O)c4ccc(S(=O)(=O)F)cc4)c3)c2/C1=C/c1ccc[nH]1 | 148 to 151 °C |
| Cc1cccc2c3c([nH]c12)CCC(N1CCCC1)C3 (configuration not stated) | 159 to 163 °C |
| COc1cccc(OC)c1C(=O)P1(=O)Oc2ccccc2-c2ccccc21 (configuration not stated) | 96 to 98 °C |
| CN(C)C12CN3CN(CN(C3)C1)C2 | 110 to 111 °C |
